Assays:
[1] = molecular target: T1, Amine oxidase [flavin-containing] B (Homo sapiens, UniProt P27338); test: Inhibition of human recombinant MAO-B expressed in insect cells using p-tyramine as substrate preincubated for 30 mins followed by substrate addition measured for 15 mins by resorufin dye-based fluorescence assay; format: cell-based
T1 sequence (P27338 whole entry): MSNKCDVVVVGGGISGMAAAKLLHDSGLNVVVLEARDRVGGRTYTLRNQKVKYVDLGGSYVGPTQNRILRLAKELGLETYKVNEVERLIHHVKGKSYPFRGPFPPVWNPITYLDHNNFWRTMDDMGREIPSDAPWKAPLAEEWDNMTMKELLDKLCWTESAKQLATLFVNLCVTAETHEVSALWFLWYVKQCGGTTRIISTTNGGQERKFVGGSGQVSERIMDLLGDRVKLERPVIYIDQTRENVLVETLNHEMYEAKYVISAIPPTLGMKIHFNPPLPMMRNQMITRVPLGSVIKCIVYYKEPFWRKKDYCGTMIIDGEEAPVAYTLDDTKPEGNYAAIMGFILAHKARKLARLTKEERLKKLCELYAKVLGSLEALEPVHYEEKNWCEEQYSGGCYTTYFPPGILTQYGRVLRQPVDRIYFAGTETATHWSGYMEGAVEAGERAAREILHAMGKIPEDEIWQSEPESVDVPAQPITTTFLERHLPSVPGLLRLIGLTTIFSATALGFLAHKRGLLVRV

Homo sapiens = organism: Homo sapiens; test: Selectivity index, ratio of IC50 for human recombinant MAO-A expressed in insect cells to IC50 for human recombinant MAO-B expressed in insect cells
[2] = molecular target: T1, Amine oxidase [flavin-containing] B; test: Inhibition of human recombinant MAO-B expressed in insect cells at 1 uM using p-tyramine as substrate preincubated for 30 mins followed by substrate addition measured for 15 mins by resorufin dye-based fluorescence assay relative to control; conditions: 0.25 h; for inhibition at 1 µM: read-out: INH; for INH: 1 µM
[3] = molecular target: T2, Amine oxidase [flavin-containing] A (Homo sapiens, UniProt P21397); test: Inhibition of human recombinant MAO-A expressed in insect cells using p-tyramine as substrate preincubated for 30 mins followed by substrate addition measured for 15 mins by resorufin dye-based fluorescence assay
T2 sequence (P21397 whole entry): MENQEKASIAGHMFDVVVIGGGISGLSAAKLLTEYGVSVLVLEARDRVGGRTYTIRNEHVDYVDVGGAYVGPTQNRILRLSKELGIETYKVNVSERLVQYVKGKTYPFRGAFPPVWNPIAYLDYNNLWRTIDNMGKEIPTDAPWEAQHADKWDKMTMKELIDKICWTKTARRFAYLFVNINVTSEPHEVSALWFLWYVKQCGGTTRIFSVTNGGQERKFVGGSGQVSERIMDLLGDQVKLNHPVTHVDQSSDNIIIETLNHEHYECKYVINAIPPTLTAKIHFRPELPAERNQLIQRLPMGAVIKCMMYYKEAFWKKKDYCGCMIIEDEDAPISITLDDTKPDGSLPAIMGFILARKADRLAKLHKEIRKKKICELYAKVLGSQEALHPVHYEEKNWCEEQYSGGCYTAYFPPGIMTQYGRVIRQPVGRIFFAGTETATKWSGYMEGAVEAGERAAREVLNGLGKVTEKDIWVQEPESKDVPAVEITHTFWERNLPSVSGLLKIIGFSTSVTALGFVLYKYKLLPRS

## O=C1Nc2ccc(OCc3ccc(F)cc3)cc2C1=O
[1]
  IC50: 0.073 µM
Homo sapiens
  Ratio IC50: 3210
[2]
  inhibition at 1 µM: 92.5%
[3]
  IC50: 235 µM

## O=C1Nc2ccc(OCc3ccc(Cl)c(Cl)c3)cc2C1=O
[1]
  IC50: 0.003 µM
Homo sapiens
  Ratio IC50: 38900
[2]
  inhibition at 1 µM: 95.7%
[3]
  IC50: 117 µM

## O=C1Cc2cc(OCc3ccc(Cl)c(Cl)c3)ccc2N1
[1]
  IC50: 17.2 µM
Homo sapiens
  Ratio IC50: > 29.1
[2]
  inhibition at 1 µM: 12.4%
[3]
  IC50: > 500 µM

## CC(C)=C1C(=O)Nc2ccc(OCc3cccc(F)c3)cc21
[2]
  INH: Not Active

## Cn1c(=O)[nH]c2cc(OCc3cccc(Cl)c3)ccc21
[1]
  IC50: 34.3 µM
Homo sapiens
  Ratio IC50: > 14.6
[2]
  inhibition at 1 µM: 23.4%
[3]
  IC50: > 500 µM

## Cn1c(=O)[nH]c2cc(OCCCc3ccccc3)ccc21
[2]
  INH: Not Active

## CCn1c(=O)[nH]c2ccc(OCCOc3ccc(Cl)cc3)cc21
[2]
  inhibition at 1 µM: 7.24%

## Cn1c(=O)[nH]c2ccc(OCc3ccc(Cl)cc3)cc21
[1]
  IC50: 56.4 µM
Homo sapiens
  Ratio IC50: > 8.87
[2]
  inhibition at 1 µM: 8.29%
[3]
  IC50: > 500 µM

## CC1(C)C(=O)Nc2ccc(OCc3cccc(Cl)c3)cc21
[1]
  IC50: 279 µM
Homo sapiens
  Ratio IC50: > 1.79
[2]
  inhibition at 1 µM: 21.1%
[3]
  IC50: > 500 µM

## CC(C)C1C(=O)Nc2ccc(OCc3cccc(F)c3)cc21 (configuration not stated)
[1]
  IC50: 397 µM
Homo sapiens
  Ratio IC50: > 1.62
[2]
  inhibition at 1 µM: 12.7%
[3]
  IC50: > 500 µM

## Cn1c(=O)[nH]c2ccc(OCc3cccc(Cl)c3)cc21
[2]
  inhibition at 1 µM: 8.89%

## O=C1Nc2ccc(OCc3cccc(Cl)c3)cc2C1=O
[1]
  IC50: 0.046 µM
Homo sapiens
  Ratio IC50: 6760
[2]
  inhibition at 1 µM: 93%
[3]
  IC50: 311 µM

## COc1ccc(OCCOc2ccc3[nH]c(=O)n(C(C)C)c3c2)cc1
[2]
  inhibition at 1 µM: 15.5%

## Cn1c(=O)[nH]c2ccc(OCc3ccc(Cl)c(Cl)c3)cc21
[1]
  IC50: 7.68 µM
Homo sapiens
  Ratio IC50: > 65
[2]
  inhibition at 1 µM: 32.4%
[3]
  IC50: > 500 µM

## CC1(C)C(=O)Nc2ccc(OCCOc3ccccc3)cc21
[2]
  INH: Not Active

## COc1ccc(OCCOc2ccc3c(c2)C(=C(C)C)C(=O)N3)cc1
[2]
  INH: Not Active

## CC1(C)C(=O)Nc2ccc(OCCc3ccccc3)cc21
[2]
  INH: Not Active

## CC(C)=C1C(=O)Nc2ccc(OCc3ccc(F)cc3)cc21
[2]
  INH: Not Active

## CC(C)n1c(=O)[nH]c2ccc(OCCOc3cccc(F)c3)cc21
[2]
  inhibition at 1 µM: 12.9%

## CCn1c(=O)[nH]c2ccc(OCc3ccc(C(F)(F)F)cc3)cc21
[1]
  IC50: 184 µM
Homo sapiens
  Ratio IC50: > 2.71
[2]
  inhibition at 1 µM: 22.8%
[3]
  IC50: > 500 µM

## CCn1c(=O)[nH]c2ccc(OCc3cccc(C(F)(F)F)c3)cc21
[2]
  inhibition at 1 µM: 12.5%

## Cn1c(=O)[nH]c2ccc(OCc3cccc(F)c3)cc21
[2]
  inhibition at 1 µM: 5.36%

## CCn1c(=O)[nH]c2ccc(OCCOc3ccc(C(C)C)cc3)cc21
[1]
  IC50: 278 µM
Homo sapiens
  Ratio IC50: > 1.8
[2]
  inhibition at 1 µM: 19%
[3]
  IC50: > 500 µM

## CC(C)=C1C(=O)Nc2ccc(OCCc3ccccc3)cc21
[2]
  INH: Not Active

## CC1(C)C(=O)Nc2ccc(OCc3ccc(Cl)c(Cl)c3)cc21
[1]
  IC50: 132 µM
Homo sapiens
  Ratio IC50: > 3.78
[2]
  inhibition at 1 µM: 28.8%
[3]
  IC50: > 500 µM

## O=C1Nc2ccc(OCCc3ccc(F)cc3)cc2C1=O
[1]
  IC50: 0.102 µM
Homo sapiens
  Ratio IC50: > 4900
[2]
  inhibition at 1 µM: 68.7%
[3]
  IC50: > 500 µM

## Cn1c(=O)[nH]c2cc(OCc3ccccc3)ccc21
[2]
  INH: Not Active

## CC1(C)C(=O)Nc2ccc(OCc3ccc(F)cc3)cc21
[2]
  INH: Not Active

## Cc1ccc(COc2ccc3c(c2)C(C)(C)C(=O)N3)cc1
[2]
  INH: Not Active

## Cc1ccc(COc2ccc3c(c2)C(C(C)C)C(=O)N3)cc1 (configuration not stated)
[2]
  INH: Not Active

## Cn1c(=O)[nH]c2ccc(OCCCc3ccccc3)cc21
[1]
  IC50: 59.6 µM
Homo sapiens
  Ratio IC50: > 8.39
[2]
  inhibition at 1 µM: 14%
[3]
  IC50: > 500 µM

## Cn1c(=O)[nH]c2ccc(OCc3ccccc3)cc21
[2]
  INH: Not Active

## CC(C)c1ccc(OCCOc2ccc3[nH]c(=O)n(C(C)C)c3c2)cc1
[1]
  IC50: 66.7 µM
Homo sapiens
  Ratio IC50: > 7.49
[2]
  inhibition at 1 µM: 14.1%
[3]
  IC50: > 500 µM

## CC(C)=C1C(=O)Nc2ccc(OCc3cccc(C)c3)cc21
[2]
  INH: Not Active

## CCn1c(=O)[nH]c2ccc(OCCOc3ccc(OC)cc3)cc21
[2]
  inhibition at 1 µM: 13.9%

## Cn1c(=O)[nH]c2ccc(OCCc3cccc(Cl)c3)cc21
[2]
  inhibition at 1 µM: 13.7%

## CCn1c(=O)[nH]c2ccc(OCCOc3cccc(F)c3)cc21
[1]
  IC50: 190 µM
Homo sapiens
  Ratio IC50: > 2.62
[2]
  inhibition at 1 µM: 30.3%
[3]
  IC50: > 500 µM

## CCn1c(=O)[nH]c2ccc(OCCCc3ccccc3)cc21
[2]
  inhibition at 1 µM: 4.56%

## Cn1c(=O)[nH]c2cc(OCCc3ccccc3)ccc21
[2]
  INH: Not Active

## CCn1c(=O)[nH]c2ccc(OCCCOc3ccccc3)cc21
[2]
  inhibition at 1 µM: 11.3%

## CC(C)n1c(=O)[nH]c2ccc(OCCOc3ccc(Cl)cc3)cc21
[2]
  inhibition at 1 µM: 18.2%

## Cn1c(=O)[nH]c2ccc(OCCc3ccccc3)cc21
[2]
  INH: Not Active

## Cc1ccc(COc2ccc3c(c2)C(C)C(=O)N3)cc1 (racemic)
[2]
  INH: Not Active

## O=C1Cc2cc(OCCc3ccc(F)cc3)ccc2N1
[1]
  IC50: 190 µM
Homo sapiens
  Ratio IC50: > 2.63
[2]
  inhibition at 1 µM: 18.1%
[3]
  IC50: > 500 µM

## O=C1Cc2cc(OCc3ccc(F)cc3)ccc2N1
[1]
  IC50: 24.9 µM
Homo sapiens
  Ratio IC50: > 20.1
[2]
  inhibition at 1 µM: 19.6%
[3]
  IC50: > 500 µM

## CC(C)=C1C(=O)Nc2ccc(OCCOc3ccccc3)cc21
[2]
  INH: Not Active

## Cn1c(=O)[nH]c2ccc(OCCOc3ccc(Cl)cc3)cc21
[2]
  inhibition at 1 µM: 9.94%

## Cn1c(=O)[nH]c2ccc(OCCc3ccc(Cl)cc3)cc21
[2]
  inhibition at 1 µM: 19.9%

Reference: ChEMBL document CHEMBL4400552, “Design, synthesis and biological evaluation of novel human monoamine oxidase B inhibitors based on a fragment in an X-ray crystal structure” (Bioorg Med Chem Lett, 2019)
